In patent US6518314B1, “Pharmaceutical agents that impede the initiation and progression of primary and secondary DMS disruptions” (Nymox Corporation, priority 1997, dated 2003):

System: human DMS
Test: In vivo assay: intracerebral injection of human DMS plus compound into rats, histology of DMS disruption site
Settings: for Mean Volume Disrupted DMS: mean tissue volume of transformed redistributed disrupted DMS protein per individual DMS, rats, about 100,000 human DMS and compound at 10^−5M; for Persistence of Inflamm. Reaction: ratio of number of acute inflammatory cells (excluding macrophages) per DMS at the DMS disruption site; for Persistence of Inflamm. Reaction / Digestion and removal of DMS: compared to control (ii) normalized to 1.0, compound at 10^−5M; for Digestion and removal of DMS: ratio of number of macrophages containing DMS material per DMS at the DMS disruption site

| SMILES | Mean Volume Disrupted DMS | Persistence of Inflamm. Reaction | Digestion and removal of DMS |
| --- | --- | --- | --- |
| CC(Cc1ccccc1)N1CCN(C(c2ccccc2)c2ccccc2)CC1 (racemic) [Compound 1, (±)-1-(1-Phenylisopropyl)-4-(diphenylmethyl)piperazine] | 1250 μ^3 | <0.01 | >10 |
| Clc1ccc2c(c1)C(N1CCNCC1)=Nc1ccccc1O2 [Amoxepine] | 1.36 × 10^5 μ^3 | 1.1 | 1.0 |
| CN1[C@@H]2CC[C@H]1C[C@@H](OC(=O)C(CO)c1ccccc1)C2 (stereo partly drawn) [Atropine] |  | 1.0 | 1.0 |
| CC(C)C[C@H]1C(=O)N2CCC[C@H]2[C@]2(O)O[C@](NC(=O)[C@@H]3C=C4c5cccc6[nH]c(Br)c(c56)C[C@H]4N(C)C3)(C(C)C)C(=O)N12 [Bromocriptine] | 1.04 × 10^5 μ^3 | 1.0 | 1.0 |
| c1ccc(C(OCCOC(c2ccccc2)c2ccccc2)c2ccccc2)cc1 [Compound 2, 1,2-Bis(diphenylmethoxy)ethane] | 560 μ^3 | <0.01 | >10 |
| Clc1ccc(C(OCCOC(c2ccccc2)c2ccc(Cl)cc2)c2ccccc2)cc1 (stereo not drawn) [Compound 4, 1,2-Bis(4chlorophenylphenylmethoxy)ethane] | 580 μ^3 | <0.01 | >10 |
| FC(F)(F)c1ccc(C(OCCOC(c2ccccc2)c2ccc(C(F)(F)F)cc2)c2ccccc2)cc1 (stereo not drawn) [Compound 5, 1,2-Bis(4-trifluoromethylphenylphenylmethoxy)ethane] | 940 μ^3 | <0.01 | >10 |
| Cc1ccccc1C(OCCOC(c1ccccc1)c1ccccc1C)c1ccccc1 (stereo not drawn) [Compound 6, 1,2-Bis(2-methylphenylphenylmethoxy)ethane] | 940 μ^3 | <0.01 | >10 |
| CN(CCC=C1c2ccccc2CCc2ccccc21)CCOC(c1ccccc1)c1ccccc1 [Compound 9, 3-(10,11-Dihydro-5H-dibenzo[a,d]cyclohepten-5-ylidene-N-methyl-N-[2-(diphenylmethoxy)ethyl)]-1-propaneamine] | 482 μ^3 | <0.01 | >10 |
| CN(CCC=C1c2ccccc2CCc2ccccc21)CCOC(c1ccccc1)c1ccc(Cl)cc1 (stereo not drawn) [Compound 10, 3-(10,11-Dihydro-5H-dibenzo[a,d]cyclohepten-5-ylidene-N-methyl-N-[2-(4-chlorophenylphenylmethoxy)ethyl)]-1-propaneamine] | 460 μ^3 | <0.01 | >10 |
| COC(=O)C1=C(C)N(CCOC(c2ccccc2)c2ccccc2)C(C)=C(C(=O)OC)C1c1ccccc1 [Compound 11] | 1260 μ^3 | <0.01 | >10 |
| CC(COc1ccc(/C(=C/c2ccccc2)c2ccccc2)cc1)N1CCN(C(c2ccccc2)c2ccccc2)CC1 (stereo not drawn) [Compound 12] | 740 μ^3 | <0.01 | >10 |
| Cn1cnc2c1c(=O)n(CCOC(c1ccccc1)c1ccccc1)c(=O)n2C [Compound 13] | 1625 μ^3 | <0.01 | >10 |
| Cn1cnc2c1c(=O)n(CCOC(c1ccccc1)c1ccc(Cl)cc1)c(=O)n2C (stereo not drawn) [Compound 14] | 1625 μ^3 | <0.01 | >10 |
| CN1C(=O)CN=C(c2ccccc2)c2cc(Cl)ccc21 [Diazepam] | 6.5 × 10^4 μ^3 | 1.1 | 1.0 |
| CC[N+](C)(C)c1cccc(O)c1 [Edrophonium Chloride] |  | 1.0 | 1.0 |
| C[C@@H](CO)NC(=O)[C@@H]1C=C2c3cccc4[nH]cc(c34)C[C@H]2N(C)C1 [Ergonovine] | 5.2 × 10^4 μ^3 | 1.0 | 1.0 |
| CN1C[C@H](C(=O)N[C@]2(C)O[C@@]3(O)[C@@H]4CCCN4C(=O)[C@H](Cc4ccccc4)N3C2=O)C=C2c3cccc4[nH]cc(c34)C[C@H]21 [Ergotamine] | 5.8 × 10^4 μ^3 | 1.0 | 1.0 |
| CN(C)CCCN1c2ccccc2CCc2ccccc21 [Imipramine] | 1.38 × 10^5 μ^3 | 1.0 | 1.0 |
| O=C1Nc2ccc(Cl)cc2C(c2ccccc2Cl)=NC1O (stereo not drawn) [Lorazepam] | 8.2 × 10^4 μ^3 | 1.1 | 1.0 |
| CCOC(=O)C1(c2ccccc2)CCN(C)CC1 [Meperidine] | 2.1 × 10^5 μ^3 | 1.0 | 1.0 |
| COC(=O)C(c1ccccc1)C1CCCCN1 (stereo not drawn) [Methylphenidate] | 5.8 × 10^4 μ^3 | 1.1 | 1.01 |
| CN(C)C(=O)Oc1cccc([N+](C)(C)C)c1 [Neostigmine] | 1.4 × 10^5 μ^3 | 1.1 | 1.0 |
| O=C1Nc2ccc(Cl)cc2C(c2ccccc2)=NC1O (stereo not drawn) [Oxazepam] | 6.8 × 10^4 μ^3 | 1.1 | 1.0 |
| CCCN1C[C@H](CSC)C[C@@H]2c3cccc4[nH]cc(c34)C[C@H]21 [Pergolide] | 1.2 × 10^5 μ^3 | 1.1 | 1.0 |
| CNC(=O)Oc1ccc2c(c1)[C@]1(C)CCN(C)[C@@H]1N2C [Physostigmine] | 1.1 × 10^5 μ^3 | 1.0 | 1.0 |
| CC[C@@H]1C(=O)OC[C@@H]1Cc1cncn1C [Pilocarpine] | 1.7 × 10^5 μ^3 | 1.1 | 1.0 |
| CN(C)C(=O)Oc1ccc[n+](C)c1 [Pyridostigmine bromide] |  | 1.1 | 1.0 |
| C#CCN(C)[C@H](C)Cc1ccccc1 [Selegiline] | 1.3 × 10^5 μ^3 | 1.0 | 1.0 |
| Nc1c2c(nc3ccccc13)CCCC2 [Tacrine] | 1.4 × 10^5 μ^3 | 1.1 | 1.0 |
